In the series the test system is CCRIS mutagenicity, Ames/micronucleus/aberration tests. The series is described as follows: CCRIS mutagenicity studies.
[1] abbreviates: Test System: AMES SALMONELLA TYPHIMURIUM, Strain/Indicator: TA98, Metabolic Activation: NONE, Method: PREINCUBATION
Setting [2] is: Test System: AMES SALMONELLA TYPHIMURIUM, Strain/Indicator: TA100, Metabolic Activation: NONE, Method: STANDARD PLATE.

The structures appear in SMILES notation. Active and inactive are the calls of the source. The rule behind the calls is not given here.

Regarding `O=[N+]([O-])c1ccc(Nc2ccc(N=C=S)cc2)cc1`, the mutagenic call is “inactive; negative” under setting [1]; “inactive; negative” (Test System: AMES SALMONELLA TYPHIMURIUM, Strain/Indicator: TA98, Metabolic Activation: NONE, Method: STANDARD PLATE); “inactive; negative” (Test System: AMES SALMONELLA TYPHIMURIUM, Strain/Indicator: TA98, Metabolic Activation: RAT, LIVER, S-9, AROCLOR 1254, Method: PREINCUBATION); “inactive; negative” (Test System: AMES SALMONELLA TYPHIMURIUM, Strain/Indicator: TA98, Metabolic Activation: RAT, LIVER, S-9, AROCLOR 1254 OR PHENOBARBITOL, Method: STANDARD PLATE); “inactive; negative” under setting [2]; “inactive; negative” (Test System: AMES SALMONELLA TYPHIMURIUM, Strain/Indicator: TA100, Metabolic Activation: RAT, LIVER, S-9, AROCLOR 1254 OR PHENOBARBITOL, Method: STANDARD PLATE). Further, the mutagenic call (Test System: AMES SALMONELLA TYPHIMURIUM, Strain/Indicator: TA1535, Metabolic Activation: NONE, Method: STANDARD PLATE) is “inactive; negative”; the mutagenic call (Test System: AMES SALMONELLA TYPHIMURIUM, Strain/Indicator: TA1535, Metabolic Activation: RAT, LIVER, S-9, AROCLOR 1254 OR PHENOBARBITOL, Method: STANDARD PLATE) is “inactive; negative”; the mutagenic call (Test System: AMES SALMONELLA TYPHIMURIUM, Strain/Indicator: TA1537, Metabolic Activation: NONE, Method: STANDARD PLATE) was “inactive; negative”; the mutagenic call (Test System: AMES SALMONELLA TYPHIMURIUM, Strain/Indicator: TA1537, Metabolic Activation: RAT, LIVER, S-9, AROCLOR 1254 OR PHENOBARBITOL, Method: STANDARD PLATE) is “inactive; negative”; the mutagenic call (Test System: AMES SALMONELLA TYPHIMURIUM, Strain/Indicator: TA1538, Metabolic Activation: NONE, Method: STANDARD PLATE) was “inactive; negative”; the mutagenic call (Test System: AMES SALMONELLA TYPHIMURIUM, Strain/Indicator: TA1538, Metabolic Activation: RAT, LIVER, S-9, AROCLOR 1254 OR PHENOBARBITOL, Method: STANDARD PLATE) was “inactive; negative”.
In the case of `CCCCOC(=O)C=Cc1ccc([N+](=O)[O-])o1`, under setting [1], the mutagenic call is “active; positive”.
Turning to `O=[N+]([O-])C(Br)(Br)Br`, the mutagenic call by setting is: under setting [1], “inactive; negative”; (Test System: AMES SALMONELLA TYPHIMURIUM, Strain/Indicator: TA100, Metabolic Activation: HAMSTER, LIVER, S-9, AROCLOR 1254 (5%), Method: PREINCUBATION) “inactive; negative”; (Test System: AMES SALMONELLA TYPHIMURIUM, Strain/Indicator: TA100, Metabolic Activation: HAMSTER, LIVER, S-9, AROCLOR 1254 (10 OR 30%), Method: PREINCUBATION) “inactive; negative”; (Test System: AMES SALMONELLA TYPHIMURIUM, Strain/Indicator: TA100, Metabolic Activation: HAMSTER, LIVER, S-9, AROCLOR 1254 (30%), Method: PREINCUBATION) “active; positive”; (Test System: AMES SALMONELLA TYPHIMURIUM, Strain/Indicator: TA100, Metabolic Activation: NONE, Method: PREINCUBATION) “inactive; negative”; (Test System: AMES SALMONELLA TYPHIMURIUM, Strain/Indicator: TA100, Metabolic Activation: RAT, LIVER, S-9, AROCLOR 1254 (5%), Method: PREINCUBATION) “inactive; negative”. Also, the mutagenic call is “inactive; negative” (Test System: AMES SALMONELLA TYPHIMURIUM, Strain/Indicator: TA100, Metabolic Activation: RAT, LIVER, S-9, AROCLOR 1254 (10%), Method: PREINCUBATION); “inactive; negative” (Test System: AMES SALMONELLA TYPHIMURIUM, Strain/Indicator: TA1535, Metabolic Activation: RAT, LIVER, S-9, AROCLOR 1254 (5%), Method: PREINCUBATION); “inactive; negative” (Test System: Ames Salmonella typhimurium, Strain/Indicator: RSJ100, Metabolic Activation: None, Method: Standard plate); “inactive; negative” (Test System: Ames Salmonella typhimurium, Strain/Indicator: RSJ 100, Metabolic Activation: Rat, Liver, S-9, Aroclor, Method: Standard plate); “inactive; negative” (Test System: Ames Salmonella typhimurium, Strain/Indicator: RSJ100, Metabolic Activation: Rat, Liver, S-9, Aroclor, Method: Standard plate); “inactive; negative” (Test System: Ames Salmonella typhimurium, Strain/Indicator: TA98, Metabolic Activation: None, Method: Standard plate). In addition, the mutagenic call reads like this: (Test System: Ames Salmonella typhimurium, Strain/Indicator: TA98, Metabolic Activation: Rat, Liver, S-9, Aroclor, Method: Standard plate) “inactive; negative”; (Test System: Ames Salmonella typhimurium, Strain/Indicator: TA100, Metabolic Activation: None, Method: Standard plate) “inactive; negative”; (Test System: Ames Salmonella typhimurium, Strain/Indicator: TA100, Metabolic Activation: Rat, Liver, S-9, Aroclor, Method: Standard plate) “inactive; negative”; (Test System: Ames Salmonella typhimurium, Strain/Indicator: TA104, Metabolic Activation: None, Method: Standard plate) “inactive; negative”; (Test System: Ames Salmonella typhimurium, Strain/Indicator: TA104, Metabolic Activation: Rat, Liver, S-9, Aroclor, Method: Standard plate) “inactive; negative”; (Test System: Ames Salmonella typhimurium, Strain/Indicator: TPT100, Metabolic Activation: None, Method: Standard plate) “inactive; negative”.
For the compound `COc1ccc2oc([N+](=O)[O-])cc2c1N(CCCl)CCCl`, the mutagenic call (Test System: AMES SALMONELLA TYPHIMURIUM, Strain/Indicator: TA100(NR), Metabolic Activation: NONE, Method: STANDARD PLATE) was “active; positive”; the mutagenic call (Test System: AMES SALMONELLA TYPHIMURIUM, Strain/Indicator: TA100(NR), Metabolic Activation: RAT, LIVER, S-9, AROCLOR 1254, Method: STANDARD PLATE) is “active; positive”; the mutagenic call under setting [2] is “active; positive”; the mutagenic call (Test System: AMES SALMONELLA TYPHIMURIUM, Strain/Indicator: TA100, Metabolic Activation: RAT, LIVER, S-9, AROCLOR 1254, Method: STANDARD PLATE) is “active; positive”.
Turning to `OCc1ccnc2ccccc12`, the mutagenic call (Test System: AMES SALMONELLA TYPHIMURIUM, Strain/Indicator: TA100, Metabolic Activation: RAT, LIVER, S-9, Method: PREINCUBATION) is “inactive; negative”.

Values taken from PubChem BioAssay AID1259407 (Chemical Carcinogenesis Research Information System (CCRIS), 2018).
